Measurements from patent publication US10000773B2, “Cytochrome P450 and use thereof for the enzymatic oxidation of terpenes” (FIRMENICH SA, priority 2011, dated 2018).

Key:
[1] = test system: vetiver P450s; assay: Bioconversion of other monoterpene and sesquiterpene molecules using whole E. coli cells expressing the vetiver P450s and CPR; format: cell-based, Vetiveria zizanioides (L.) Nash; settings: resting E. coli cells in potassium phosphate buffer as in Example 8
Protocol: The cells were harvested in exponential growing phase, centrifuged and resuspended in 0.5 volume of potassium phosphate buffer 50 mM pH 7.0 supplemented with 5% glycerol or 3% glucose. The substrate ((+)-zizaene) was added to a final concentration of 0.5 mg/ml as mixture composed of 10 mg Tween® 20 (sigma-Aldrich), 10 mg antifoam (Erol DF, PMC Ouvrie, Lesquin, France), 20 mg (+)-zizaene and 1 ml water. The conversion was allowed to proceed for 24 hours at 20° C. with moderate shaking. The media were extracted with 2 volumes of ethyl-acetate and the extracts were analyzed by GCMS on an Agilent 6890 Series GC system connected to an Agilent 5975 mass detector. The GC was equipped with 0.25 mm inner diameter by 30 m SPB-1 capillary column (Supelco, Bellefonte, Pa.). The carrier gas was He at a constant flow of 1 mL/min. The initial oven temperature was 50° C. (1 min hold) followed by a gradient of 10° C./min to 300° C. The identification of the products was based on the comparison of the mass spectra and retention indices with authentic standards and internal databases.
E. coli cells expressing the vetiver P450s and a CPR were prepared, grown and the bioconversions performed using resting cells in potassium phosphate buffer as described in Example 8.
Assays were performed with several terpene molecules and the formation of oxygenated terpene molecules was evaluated using GCMS analysis as described in Example 8.

[2] = test system: VzP521-16-1; assay: Bioconversion of (+)-zizaene using whole E. coli cells expressing VzP521-16-1 and a CPR; format: cell-based, Vetiveria zizanioides (L.) Nash; settings: 24 hours at 20° C.
Protocol: (§1) The oxidation of (+)-zizaene can be performed using whole E. coli cells expressing the vetiver P450s and a CPR (bioconversion). Zizaene was prepared using engineered E. coli cells following the method described in the patent WO 2010/134004 and using the sesquiterpene synthase with the sequence accession number HI931369.
(§2) E. coli cells (BL21Star™(DE3) E. coli cells (Invitrogen Ltd) or JM109(DE3) (Promega)) were transformed with the plasmids pCW-2391-521-11 or pCW-2392-521-16 or cells were co-transformed with the plasmids pCW-218-521-11 or pCW-218-521-16 and pACYC-tcATR1-opt and were grown in TB medium supplemented with 3% glycerol or LB medium supplemented with 1% glucose. The cultures were incubated at 37° C. until reaching an optical density of 1. The cultures were then transferred to 28° C., 1 mM IPTG and 74 μg/ml δ-aminolevulinic acid were added and the culture were incubated for 24 hours.
(§3) The cells were harvested in exponential growing phase, centrifuged and resuspended in 0.5 volume of potassium phosphate buffer 50 mM pH 7.0 supplemented with 5% glycerol or 3% glucose. […] The media were extracted with 2 volumes of ethyl-acetate and the extracts were analyzed by GCMS on an Agilent 6890 Series GC system connected to an Agilent 5975 mass detector. […]

[3] = test system: heterologous P450 and CPR complex; format: cell-based, E. coli
Protocol: The oxidized products of (+)-zizaene can also be produced in E. coli cells engineered to produce sesquiterpenes from a carbon source such as glucose or glycerol. Plasmids were prepared consisting of the pCWori (Barnes H. J (1996) Method Enzymol. 272, 3-14) plasmid containing an operon composed of the P450, the P450-reductase and the terpene synthase. Two plasmids were thus prepared by inserting an RBS sequence and the optimized sequence encoding for the (+)-zizaene synthase (VzZS) after the stop codon of the CPR sequence in the pCW-2391-521-11 or pCW-2392-521-16.
The VzZS was amplified from pETDuet-VzZS-opt plasmid (as described in WO 2010/134004) using the primers 2401-VzZS-F (SEQ ID NO:33) and 2401-VzZS-R (SEQ ID NO:34). […]
OverExpress™ C43(DE3) E. coli cells (Lucigen® Corporation) were co-transformed with the plasmid pACYC-29258-4506 and the plasmid pCW-2401-521-11 or the plasmid pCW-2402-521-16. […] After 48 hours, the cultures were extracted with 2 volumes of tert-Butyl methyl ether (MTBE) and the extracts analyzed by GCMS as described in Example 8, except for the oven temperature that was initially set at 80° C. with one minute hold, followed by gradient of 10° C./min to 300° C.

[4] = test system: VzP521-11-1; assay: Bioconversion of (+)-zizaene using whole E. coli cells expressing VzP521-11-1 and a CPR; format: cell-based, Vetiveria zizanioides (L.) Nash; settings: 24 hours at 20° C.
Protocol: as §1, §2, §3

For `C=C(C)C1CC=C(C)CC1` (single isomer, unassigned; (+)) [(+)-limonene], the “bioconversion, formation of oxygenated terpene molecules (GCMS)” value (shortened to “bioconversion, formation”) [1] was “bioconversion was observed”.

For `C=C1[C@H]2CC[C@H](C)[C@@]23CC[C@@H](C3)C1(C)C` [(+)-zizaene], the “oxidation products identified by GCMS” value [2] was “khusimol, zizanal and zizanoic acid”, the “oxidation of substrate (GCMS)” value ([2]; substrate 0.5 mg/ml) was “oxidation of (+)-zizaene was observed” and the “oxidation of the sesquiterpene produced in the engineered cells (GCMS)” value [3] was “is oxidized by the heterologous P450 and CPR complex”. For the same compound, the “bioconversion, formation” value [1] was “bioconversion was observed”, the “oxidation products identified by GCMS” value [4] was “khusimol, zizanal and zizanoic acid” and the “oxidation of substrate (GCMS)” value ([4]; substrate 0.5 mg/ml) was “oxidation of (+)-zizaene was observed”.

With `C=C1CC[C@@H]2[C@H]([C@@H]3[C@H](C)CC[C@H]13)C2(C)C` [alloaromadendrene] the “bioconversion, formation” value [1] was “bioconversion was observed”.

With `CC1=CC[C@@]23C[C@@H]1C(C)(C)[C@@H]2CC[C@H]3C` [alpha-cedrene] the “bioconversion, formation” value [1] was “bioconversion was observed”.

`CC1=CC[C@H]2[C@H]3[C@@H]1[C@]2(C)CC[C@H]3C(C)C` [alpha-copaene] was tested, and the “bioconversion, formation” value [1] was “bioconversion was observed”.

`CC1=CC[C@]23C[C@H]1C(C)(C)[C@@H]2CC[C@H]3C` [alpha-funebrene] was tested, and the “bioconversion, formation” value [1] was “bioconversion was observed”.

With `C/C1=C\CC/C(C)=C/CC(C)(C)/C=C/C1` [alpha-humulene] the “bioconversion, formation” value [1] was “bioconversion was observed”.

For `CC1=CC[C@@H]2[C@@H]3[C@H]1[C@@]2(C)CCCC3(C)C` [alpha-longipinene], the “bioconversion, formation” value [1] was “bioconversion was observed”.

For `CC1=CCC2CC1C2(C)C` (stereo not drawn) [alpha-pinene], the “bioconversion, formation” value [1] was “bioconversion was observed”.

`C=C1CCCC(C)(C)[C@@]12CC=C(C)CC2` [beta-chamigrene] was tested, and the “bioconversion, formation” value [1] was “bioconversion was observed”.

In the case of `C=C1CC[C@@]23C[C@@H]1C(C)(C)[C@@H]2CC[C@H]3C` [beta-funebrene], the “bioconversion, formation” value [1] is reported as “bioconversion was observed”.

With `C=C1CCC2CC1C2(C)C` (stereo not drawn) [beta-pinene] the “bioconversion, formation” value [1] was “bioconversion was observed”.

With `C=C(C)[C@H]1C=C2[C@H](C)CC[C@@H]2[C@H](C)CC1` [gamma-gurjunene] the “bioconversion, formation” value [1] was “bioconversion was observed”.

With `C=C1[C@H]2C[C@H]3[C@@H](C(C)C)CC[C@]1(C)[C@H]3C2` [isosativene] the “bioconversion, formation” value [1] was “bioconversion was observed”.

`CC1=C2CC[C@@H](C)[C@H]2[C@H]2[C@@H](CC1)C2(C)C` [ledene] was tested, and the “bioconversion, formation” value [1] was “bioconversion was observed”.

With `CC1=CC[C@]2(C)CCCC(C)(C)[C@@]23C[C@@H]13` [thujopsene] the “bioconversion, formation” value [1] was “bioconversion was observed”.

For `C=C(C)[C@@H]1CCC2=CCC[C@@H](C)[C@]2(C)C1` [valencene], the “bioconversion, formation” value [1] was “bioconversion was observed”.

(−)-limonene was tested, and the “bioconversion, formation” value [1] was “bioconversion was observed”.

alpha gurjunene was tested, and the “bioconversion, formation” value [1] was “bioconversion was observed”.

With alpha neoclovenene the “bioconversion, formation” value [1] was “bioconversion was observed”.
